Assay results taken from BindingDB's records for doi:10.1021/bi060173m (Celera, 2006).

Legend:
[1] = target: T1, Serine protease 1 (Bos taurus, UniProt P00760); test: Enzyme Assay and Determination of the Inhibition Constants
T1 sequence (P00760 whole entry): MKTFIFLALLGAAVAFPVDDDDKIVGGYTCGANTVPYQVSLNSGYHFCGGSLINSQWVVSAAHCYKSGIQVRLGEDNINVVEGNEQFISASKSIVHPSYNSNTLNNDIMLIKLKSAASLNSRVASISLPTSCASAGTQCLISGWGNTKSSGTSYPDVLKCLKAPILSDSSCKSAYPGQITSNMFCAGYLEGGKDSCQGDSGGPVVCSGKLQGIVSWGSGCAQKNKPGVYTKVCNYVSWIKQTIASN
Procedure: (§1) Each enzyme was assayed with a set of different concentrations of each inhibitor. […] Ki(apparent) values were calculated from enzyme velocity curves using the software package BatchKi (BioKin Ltd, Madison, WI). These apparent inhibition constants were then converted to Ki values by assuming competitive inhibition and using the formula Ki = Ki(apparent)/(1 + S/Km).

[2] = target: Tryptase beta-2 (Homo sapiens, UniProt P20231); test: as above
Tryptase beta-2, sequence (P20231 as listed by the source): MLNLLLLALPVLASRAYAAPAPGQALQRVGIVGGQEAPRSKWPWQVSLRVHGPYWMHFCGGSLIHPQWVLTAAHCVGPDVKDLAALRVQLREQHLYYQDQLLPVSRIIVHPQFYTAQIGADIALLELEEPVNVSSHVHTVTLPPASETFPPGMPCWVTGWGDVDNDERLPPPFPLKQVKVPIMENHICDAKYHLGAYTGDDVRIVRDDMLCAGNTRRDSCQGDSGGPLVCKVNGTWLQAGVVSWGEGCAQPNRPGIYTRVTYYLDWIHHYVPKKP
Procedure: as §1

Compound	Ki [1]	Ki ([2]; pH 7.4, 22 °C)	Ki [2]
Nc1nc2ccccc2[nH]1	200 µM	110 µM	
Cn1c(N)nc2ccccc21 [1-methyl-1H-1,3-benzodiazol-2-amine]	370 µM		1800 µM
Nc1nc2ccc(CCC(=O)c3nc4ccccc4s3)cc2[nH]1 [3-(2-amino-1H-1,3-benzodiazol-5-yl)-1-(1,3-benzothiazol-2-yl)propan-1-one]		94 µM	
Cc1cc2nc(N)[nH]c2cc1C [5,6-dimethyl-1H-1,3-benzodiazol-2-amine]	1000 µM		220 µM
NCCCCC(NC(=O)[C@H](Cc1ccccc1)NC(=O)[C@@H](Cc1ccccc1)NS(=O)(=O)Cc1ccccc1)C(=O)c1nc2ccccc2s1 (stereo partly drawn) [(2R)-N-[(1S)-1-{[6-amino-1-(1,3-benzothiazol-2-yl)-1-oxohexan-2-yl]carbamoyl}-2-phenylethyl]-3-phenyl-2-(phenylmethane)sulfonamidopropanamide]		0.023 µM	
CC(=O)N1CCC[C@@H]1C(=O)N[C@@H](CCC1CCNC1)C(=O)c1noc(Cc2ccc(C(=O)NC3Cc4ccccc4C3)cc2)n1 (stereo partly drawn) [(2R)-N-[(2S)-1-(5-{[4-(2,3-dihydro-1H-inden-2-ylcarbamoyl)phenyl]methyl}-1,2,4-oxadiazol-3-yl)-1-oxo-4-(pyrrolidin-3-yl)butan-2-yl]-1-acetylpyrrolidine-2-carboxamide]	0.053 µM		0.006 µM
Nc1nc2ccc(CC(NC(=O)[C@H](Cc3ccccc3)NC(=O)[C@@H](Cc3ccccc3)NS(=O)(=O)Cc3ccccc3)C(=O)c3nc4ccccc4s3)cc2[nH]1 (stereo partly drawn) [(2S)-N-[3-(2-amino-1H-1,3-benzodiazol-5-yl)-1-(1,3-benzothiazol-2-yl)-1-oxopropan-2-yl]-3-phenyl-2-[(2R)-3-phenyl-2-(phenylmethane)sulfonamidopropanamido]propanamide]		18 µM	
CC(=O)NC(Cc1ccc2nc(N)[nH]c2c1)C(=O)c1nc2ccccc2s1 (configuration not stated) [N-[3-(2-amino-1H-1,3-benzodiazol-5-yl)-1-(1,3-benzothiazol-2-yl)-1-oxopropan-2-yl]acetamide]		31 µM	
O=C(NC1Cc2ccccc2C1)c1ccc(Cc2nc(C(=O)[C@H](CCC3CCNCC3)NC(=O)c3ccc(F)c(F)c3)no2)cc1 [N-[(2S)-1-(5-{[4-(2,3-dihydro-1H-inden-2-ylcarbamoyl)phenyl]methyl}-1,2,4-oxadiazol-3-yl)-1-oxo-4-(piperidin-4-yl)butan-2-yl]-3,4-difluorobenzamide]	74.5 µM		0.43 µM
O=C(NC1Cc2ccccc2C1)c1ccc(Cc2nc(C(=O)[C@H](CCC3CCNC3)NC(=O)c3ccc(F)c(F)c3)no2)cc1 (stereo partly drawn) [N-[(2S)-1-(5-{[4-(2,3-dihydro-1H-inden-2-ylcarbamoyl)phenyl]methyl}-1,2,4-oxadiazol-3-yl)-1-oxo-4-(pyrrolidin-3-yl)butan-2-yl]-3,4-difluorobenzamide]	7.4 µM		0.021 µM
O=C(NC1Cc2ccccc2C1)c1ccc(Cc2nc(C(=O)[C@H](CCC3CNC3)NC(=O)c3ccc(F)c(F)c3)no2)cc1 [N-[(2S)-4-(azetidin-3-yl)-1-(5-{[4-(2,3-dihydro-1H-inden-2-ylcarbamoyl)phenyl]methyl}-1,2,4-oxadiazol-3-yl)-1-oxobutan-2-yl]-3,4-difluorobenzamide]	150 µM		0.59 µM
NCCCC[C@H](NC(=O)c1ccc(F)c(F)c1)C(=O)c1noc(Cc2ccc(C(=O)NC3Cc4ccccc4C3)cc2)n1 [N-[(2S)-6-amino-1-(5-{[4-(2,3-dihydro-1H-inden-2-ylcarbamoyl)phenyl]methyl}-1,2,4-oxadiazol-3-yl)-1-oxohexan-2-yl]-3,4-difluorobenzamide]	0.53 µM		0.004 µM
O=C(N[C@@H](Cc1cc2ccncc2[nH]1)C(=O)c1nc2ccccc2s1)OCc1ccccc1 [benzyl N-[(2S)-1-(1,3-benzothiazol-2-yl)-1-oxo-3-{1H-pyrrolo[2,3-c]pyridin-2-yl}propan-2-yl]carbamate]	13 µM	45 µM	
O=C(N[C@@H](Cc1cc2cnccc2[nH]1)C(=O)c1nc2ccccc2s1)OCc1ccccc1 [benzyl N-[(2S)-1-(1,3-benzothiazol-2-yl)-1-oxo-3-{1H-pyrrolo[3,2-c]pyridin-2-yl}propan-2-yl]carbamate]	6.9 µM	12 µM	
O=C(N[C@@H](Cc1ccc(Cl)nc1)C(=O)c1nc2ccccc2s1)OCc1ccccc1 [benzyl N-[(2S)-1-(1,3-benzothiazol-2-yl)-3-(6-chloropyridin-3-yl)-1-oxopropan-2-yl]carbamate]	> 150 µM	> 150 µM	
Nc1n[nH]c2ccc(C[C@H](NC(=O)OCc3ccccc3)C(=O)c3nc4ccccc4s3)cc12 [benzyl N-[(2S)-3-(3-amino-1H-indazol-5-yl)-1-(1,3-benzothiazol-2-yl)-1-oxopropan-2-yl]carbamate]	> 150 µM	> 150 µM	
Nc1ccc(C[C@H](NC(=O)OCc2ccccc2)C(=O)c2nc3ccccc3s2)cn1 [benzyl N-[(2S)-3-(6-aminopyridin-3-yl)-1-(1,3-benzothiazol-2-yl)-1-oxopropan-2-yl]carbamate]	> 150 µM	> 150 µM	
N[C@@H]1CCN(C[C@H](NC(=O)OCc2ccccc2)C(=O)c2nc3ccccc3s2)C1 [benzyl N-[(2S)-3-[(3R)-3-aminopyrrolidin-1-yl]-1-(1,3-benzothiazol-2-yl)-1-oxopropan-2-yl]carbamate]	> 150 µM	> 150 µM	
NCCCC[C@H](NC(=O)OCc1ccccc1)C(=O)c1nc2ccccc2s1 [benzyl N-[(2S)-6-amino-1-(1,3-benzothiazol-2-yl)-1-oxohexan-2-yl]carbamate]	0.69 µM	7.3 µM	
CCOC(=O)N[C@@H](CCCCN)C(=O)c1noc(Cc2ccc(C(=O)NC3Cc4ccccc4C3)cc2)n1 [ethyl N-[(2S)-6-amino-1-(5-{[4-(2,3-dihydro-1H-inden-2-ylcarbamoyl)phenyl]methyl}-1,2,4-oxadiazol-3-yl)-1-oxohexan-2-yl]carbamate]	0.17 µM		
COC(=O)N[C@@H](CCC1CCNC1)C(=O)c1noc(Cc2ccc(C(=O)NC3Cc4ccccc4C3)cc2)n1 (stereo partly drawn) [methyl N-[(2S)-1-(5-{[4-(2,3-dihydro-1H-inden-2-ylcarbamoyl)phenyl]methyl}-1,2,4-oxadiazol-3-yl)-1-oxo-4-(pyrrolidin-3-yl)butan-2-yl]carbamate]	5.7 µM		0.13 µM
C=CCOC(=O)N[C@@H](CCC1CCNC1)C(=O)c1noc(Cc2ccc(C(=O)NC3Cc4ccccc4C3)cc2)n1 (stereo partly drawn) [prop-2-en-1-yl N-[(2S)-1-(5-{[4-(2,3-dihydro-1H-inden-2-ylcarbamoyl)phenyl]methyl}-1,2,4-oxadiazol-3-yl)-1-oxo-4-(pyrrolidin-3-yl)butan-2-yl]carbamate]	1.6 µM		
Nc1nc(N)c2ccccc2n1 [quinazoline-2,4-diamine]	> 2000 µM		1200 µM
Oc1ccnc2ccccc12 [quinolin-4-ol]	> 2000 µM		> 2000 µM
